Source: US10537097B2, “Methods for treating red blood cells” (VIACELL, LLC., priority 2010, dated 2020)
Each block holds one molecule with its values, some of them ahead of it.

How the values were obtained:
[1] = tested on: stored RBCs; experiment: 2,3-DPG level of stored RBCs after incubation with storage and/or rejuvenating composition (Roche 2,3-DPG kit); format: cell-based; conditions: 60 minutes at 37° C.
Description: A storage and/or rejuvenating composition that includes D-ribose, inosine, sodium pyruvate, and inorganic phosphate, all at a 300 mM concentration as a slurry was prepared. When used to store and/or rejuvenate RBCs, the slurry is diluted 30-fold to a final concentration of 10 mM to form a solution. […] In a study, RBCs were collected and stored for an average of 21 days at 4° C. according to standard blood banking practice. Various RBC storage and/or rejuvenating compositions were added to the 21-day old stored RBCs and held at 37° C. for one to four hours before being tested for 2,3-DPG concentrations. […] A normal 2,3-DPG concentration of RBC immediately upon harvest is 4.0 μmol/ml. […] An increase to 1.0 μmol/ml is considered a significant improvement.

[2] = Solubility of nucleoside / concentrated composition; format: physicochemical; conditions: with L-arginine in an equimolecular solution; room temperature

SMILES: Nc1nc2c(ncn2[C@@H]2O[C@H](CO)[C@@H](O)[C@H]2O)c(=O)[nH]1 [Guanosine]
2,3-DPG ([1]; 1 mM guanosine with 10 mM each inorganic phosphate and D-ribose, no sodium pyruvate): 0.47 µmol/mL
2,3-DPG ([1]; 5 mM guanosine with 10 mM each inorganic phosphate and D-ribose, no sodium pyruvate): 1.30 µmol/mL
2,3-DPG ([1]; 10 mM guanosine with 10 mM each inorganic phosphate and D-ribose, no sodium pyruvate): 1.10 µmol/mL
Rejuvenation ([1]; guanosine at indicated concentration with 10 mM each inorganic phosphate and D-ribose, no sodium pyruvate): Rejuvenation was observed

Concentration at which inosine remained in solution [2]: above 50 mM
SMILES: OC[C@H]1O[C@@H](n2cnc3c(O)ncnc32)[C@H](O)[C@@H]1O [inosine]

SMILES: O=C[C@H](O)[C@H](O)[C@H](O)COP(=O)(O)O [ribose-5-phosphate]
Rejuvenation ([1]; varying concentrations replacing inosine, with 10 mM each D-ribose, sodium pyruvate, inorganic phosphate): Rejuvenation was not observed
